The values that follow come from US9682126B2, “Postprandial gastrokinetic agent” (ZERIA PHARMACEUTICAL CO., LTD., priority 2013, dated 2017).

The subject of one test is subjects. As to conditions: motilin continuously administered intravenously to fasting subjects; cited from earlier work.
Test [1] concerns Suncus murinus. Description: Postprandial gastric motility, force transducer on stomach, motility index MI (Example 1). The format is in vivo. The following applies: motilin 300 ng/kg iv after 10-min feed intake. On the procedure:
Effects of administration of each of ghrelin and motilin and co-administration of ghrelin and motilin on postprandial gastric motility in Suncus murinus were studied. Each of Suncus motilin (Scrum Inc., Tokyo, Japan) and human ghrelin (Asubio Pharma Co., Ltd., Hyogo, Japan) was dissolved in phosphate buffered saline (PBS) containing 0.1% bovine serum albumin. Suncus murinus (male, outbred KAT strain, 8 to 9 weeks old, 73 to 90 g) was used for the experiment. Each animal was bred in a plastic cage provided with an empty can as a nest box under the following conditions: temperature at 23±2° C., illumination between 8:00 and 20:00, and free intake of commercial trout feed (SP, Nippon Formula Feed Mfg Co., Ltd., Yokohama, Japan). After 3 hours of fasting, Suncus murinus was anesthetized by an intraperitoneal injection of pentobarbital sodium (50 mg/kg). Through a midline incision, the stomach was exposed outside the body, and a force transducer was fixed via suture in the circular muscle direction of the body of stomach. […] Amplified analog signals were converted into digital signals by an analog-to-digital converter (ADC-20, Pico Technology Ltd, St Neots, UK), and the digital signals were recorded on a computer. […] Gastric motility was quantitated using a motility index (MI). A motility index (MI) based on a drug was calculated using the following equation. […]

Test [2] concerns Suncus murinus. Description: Gastric motility in interdigestive period, sham-operated vs vagotomized (Example 2). The format is in vivo. As to conditions: motilin 50 ng/kg/min iv over 10 minutes. As to the method:
Each of Suncus motilin (Scrum Inc., Tokyo, Japan) and human ghrelin (Asubio Pharma Co., Ltd., Hyogo, Japan) were dissolved in PBS containing 0.1% bovine serum albumin. Suncus murinus (male, outbred KAT strain, 7 to 15 weeks old, 60 to 100 g) was used for the experiment. Each animal was bred in a plastic cage provided with an empty can as a nest box under the following conditions: temperature at 23±2° C., illumination between 8:00 and 20:00, and free intake of commercial trout feed (SP, Nippon Formula Feed Mfg Co., Ltd., Yokohama, Japan). After 3 hours of fasting, Suncus murinus was anesthetized by an intraperitoneal injection of pentobarbital sodium (50 mg/kg). Through a midline incision, the stomach was exposed outside the body, and a force transducer was fixed via suture in the circular muscle direction of the body of stomach. The wire extending from the force transducer was inserted through the abdominal wall, passed under the skin, and exposed at the back of the neck. Thereafter, truncal vagotomy was performed. A lower portion of the esophagus was exposed, both branches of the vagus nerve were isolated, and about 3 mm of the vagus nerve was excised above the hepatic branch and the celiac branch. For sham-operated Suncus murinus, the vagus nerve was exposed, but not excised. An intravenous catheter was inserted in the right jugular, and extracorporeally fixed to the back. The catheter was filled with heparinized saline (100 units/mL) to prevent clotting. From 2 days after the operation, the gastric motility was recorded. Administration of motilin was initiated 10 minutes after completion of spontaneous phase III. Synthesized suncus motilin was continuously injected at 50 ng/kg/min over 10 minutes, and the continuously injected amount was 50 μL/100 g BW/min. Administration of ghrelin was initiated 10 minutes after completion of spontaneous phase II. […] Amplified analog signals were converted into digital signals by an analog-to-digital converter (ADC-20, Pico Technology Ltd, St Neots, UK), and the digital signals were recorded on a computer. Phase III contractions of MMC in conscious Suncus murinus were defined on the basis of those in dogs and humans (that is, clustered contractions with an amplitude of 8 g or more that lasts for 5 minutes or more). Gastric motility was quantitated using a motility index (MI). A motility index (MI) based on a drug was calculated using the following equation. MI (%)=A/B×100 A: AUC of contractions for 10 minutes during which the drug was administered B: […] Statistical analysis After ANOVA, Student's t test was performed.

For the molecule `CC[C@H](C)[C@H](NC(=O)[C@@H]1CCCN1C(=O)[C@@H](NC(=O)[C@@H](N)Cc1ccccc1)C(C)C)C(=O)N[C@@H](Cc1ccccc1)C(=O)N[C@H](C(=O)N[C@@H](Cc1ccc(O)cc1)C(=O)NCC(=O)N[C@@H](CCC(=O)O)C(=O)N[C@@H](CC(C)C)C(=O)N[C@@H](CCC(N)=O)C(=O)N[C@@H](CCCNC(=N)N)C(=O)N[C@@H](CCSC)C(=O)N[C@@H](CCC(N)=O)C(=O)N[C@@H](CCC(=O)O)C(=O)N[C@@H](CCCCN)C(=O)N[C@@H](CCC(=O)O)C(=O)N[C@@H](CCCNC(=N)N)C(=O)N[C@@H](CC(N)=O)C(=O)N[C@@H](CCCCN)C(=O)NCC(=O)N[C@@H](CCC(N)=O)C(=O)O)[C@@H](C)O` [motilin], in the test with subjects, the gastric emptying result is “accelerate gastric emptying”. Besides, in the test with Suncus murinus [1], the “contractions of the body of the stomach” value is “did not induce contractions of the body of the stomach”. The “motilin-induced phase III-like contractions” value in the test with Suncus murinus [2] (both sham-operated and vagotomized, 10 minutes after spontaneous phase III) is recorded as “phase III-like contractions were observed”. In addition, in the test on Suncus murinus [2] (phase I), the “contraction duration due to motilin, sham-operated vs vagotomized” value was “a significant difference was not observed” and the “motility index (MI) during administration of motilin, sham-operated vs vagotomized” value is listed as “a significant difference was not observed”.
